Laboratory results: US8969589B2, “Compounds acting at multiple prostaglandin receptors giving a general anti-inflammatory response” (Allergan, Inc., priority 2011, dated 2015)

Legend:
Assay type in all cases: cell-based
[1] = molecular target: T1, human prostanoid TP receptor (Homo sapiens, UniProt P21731); assay: FLIPR Ca2+ signaling PG antagonist assay, TP stable cell line; conditions: antagonist Kb vs standard agonist U-46619; HEK-293 EBNA cells
T1 construct: expressed in transfected cells
T1 sequence (P21731 1-343): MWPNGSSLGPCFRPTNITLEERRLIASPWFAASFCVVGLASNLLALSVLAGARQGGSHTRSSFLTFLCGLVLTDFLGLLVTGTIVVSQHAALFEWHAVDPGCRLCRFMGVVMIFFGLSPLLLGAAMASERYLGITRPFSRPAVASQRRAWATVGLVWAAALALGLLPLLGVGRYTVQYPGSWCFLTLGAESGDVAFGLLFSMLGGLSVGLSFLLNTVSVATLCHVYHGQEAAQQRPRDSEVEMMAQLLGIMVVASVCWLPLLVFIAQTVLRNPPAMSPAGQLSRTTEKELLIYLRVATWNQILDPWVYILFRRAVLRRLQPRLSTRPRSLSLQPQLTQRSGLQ
Method: (§1) The above compounds were tested for PG antagonist activity as follows using human recombinant prostanoid receptor (DP1, EP1-4, FP, IP and TP) stable cell lines:
(§2) In order to measure the response of Gs and Gi coupled prostanoid receptors as a Ca^2+ signal, chimeric G protein cDNAs were used. Stable cell lines over-expressing human prostanoid DP1, EP1-4, FP, IP, and TP receptors were established as follows:
(§3) Briefly, human prostanoid DP1, EP2, and EP4 receptor cDNAs were co-transfected with chimeric Gqs cDNA containing a haemagglutanin (HA) epitope; human prostanoid EP3 receptors were co-transfected with chimeric Gqi-HA; human EP1, FP, IP, and TP receptor cDNAs were expressed with no exogenous G-proteins. Gqs and Gqi chimeric cDNAs (Molecular Devices, Sunnyvale, Calif., U.S.A.), as well as cDNAs of prostanoid receptors, were cloned into a pCEP4 vector with a hygromycin B selection marker. Transfection into HEK-293 EBNA (Epstein-Barr virus nuclear antigen) cells was achieved by the FuGENE 6 transfection Reagent (Roche Applied Science, Indianapolis, Ind., USA). Stable transfectants were selected according to hygromycin resistance. Because Gqs and Gqi contained an HA epitope, G-protein expression was detected by Western blotting analysis using anti-mouse HA monoclonal antibody and horseradish peroxidase (HRP)-conjugated secondary antibody, while functional expression of prostanoid receptors was detected by FLIPR screening (Matias et al., 2004). These stable cell lines were validated using previously published antagonists at 10 μM against serial dilutions of standard agonists by FLIPR functional assays for Ca^2− Signaling (as described below).
(§4) Ca^2+ signaling studies were performed using a FLIPR TETRA system (Molecular Devices, Sunnyvale, Calif., USA) in the 384-format. This is a high-throughput instrument for cell-based assays to monitor Ca^2+ signaling associated with GPCRs and ion channels. Cells were seeded at a density of 5×10^4 cells/well in BioCoat poly-D-lysine coated, black wall, clear bottom 384-well plates (BD Biosciences, Franklin lakes, N.J., USA) and allowed to attach overnight in an incubator at 37° C. The cells were then washed twice with HBSS-HEPES buffer (Hanks' balanced salt solution without bicarbonate and phenol red, 20 mM HEPES, pH 7.4) using an ELx405 Select CW Microplate Washer (BioTek, Winooski, Vt., USA). […] Cells were excited with LED (light emitting diode) excitation at 470-495 nm and emission was measured through an emission filter at 515-575 nm. Assay plates were read for 3.5 minutes using the FLIPR^TETRA. The peak increase in fluorescence intensity was recorded for each well. […]

[2] = molecular target: T2, human prostanoid EP2 receptor (Homo sapiens, UniProt P43116); assay: FLIPR Ca2+ signaling PG antagonist assay, EP2 stable cell line; conditions: antagonist Kb vs standard agonist PGE2; HEK-293 EBNA cells with chimeric Gqs
T2 construct: expressed in transfected cells
Method: as §1, §2, §3, §4

[3] = molecular target: T3, human prostanoid EP4 receptor (Homo sapiens, UniProt P35408); assay: FLIPR Ca2+ signaling PG antagonist assay, EP4 stable cell line; conditions: antagonist Kb vs standard agonist PGE2; HEK-293 EBNA cells with chimeric Gqs
T3 construct: expressed in transfected cells
Method: as §1, §2, §3, §4

[4] = molecular target: T4, human prostanoid EP3 receptor (Homo sapiens, UniProt P43115); assay: FLIPR Ca2+ signaling PG antagonist assay, EP3 stable cell line; conditions: antagonist Kb vs standard agonist PGE2; HEK-293 EBNA cells with chimeric Gqi
T4 construct: expressed in transfected cells
T4 sequence (P43115 1-390): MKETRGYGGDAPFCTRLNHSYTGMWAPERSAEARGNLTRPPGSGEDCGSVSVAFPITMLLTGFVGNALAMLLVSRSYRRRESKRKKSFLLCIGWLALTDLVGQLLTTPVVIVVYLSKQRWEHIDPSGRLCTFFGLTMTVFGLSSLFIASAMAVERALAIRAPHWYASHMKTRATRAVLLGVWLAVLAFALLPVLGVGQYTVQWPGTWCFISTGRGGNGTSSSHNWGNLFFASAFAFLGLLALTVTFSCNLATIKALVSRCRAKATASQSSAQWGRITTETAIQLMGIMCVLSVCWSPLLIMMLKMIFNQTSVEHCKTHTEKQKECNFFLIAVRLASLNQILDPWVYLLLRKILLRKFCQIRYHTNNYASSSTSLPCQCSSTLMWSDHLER
Method: as §1, §2, §3, §4

[5] = molecular target: T5, human prostanoid DP1 receptor (Homo sapiens, UniProt Q13258); assay: FLIPR Ca2+ signaling PG antagonist assay, DP1 stable cell line; conditions: antagonist Kb vs standard agonist BW 245C; HEK-293 EBNA cells with chimeric Gqs
T5 construct: expressed in transfected cells
T5 sequence (Q13258 1-359): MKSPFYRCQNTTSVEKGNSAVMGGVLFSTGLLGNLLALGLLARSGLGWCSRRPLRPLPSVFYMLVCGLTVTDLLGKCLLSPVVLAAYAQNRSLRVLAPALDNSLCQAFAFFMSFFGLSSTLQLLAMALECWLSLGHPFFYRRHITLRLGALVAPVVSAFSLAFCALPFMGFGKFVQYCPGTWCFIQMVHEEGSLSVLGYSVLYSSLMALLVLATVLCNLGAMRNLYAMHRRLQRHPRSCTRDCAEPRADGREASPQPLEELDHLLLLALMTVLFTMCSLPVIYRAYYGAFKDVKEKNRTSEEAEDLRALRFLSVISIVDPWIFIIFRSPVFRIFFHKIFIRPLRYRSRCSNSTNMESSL
Method: as §1, §2, §3, §4

[6] = molecular target: T6, human prostanoid IP receptor (Homo sapiens, UniProt P43119); assay: FLIPR Ca2+ signaling PG antagonist assay, IP stable cell line; conditions: antagonist Kb vs standard agonist Cicaprost; HEK-293 EBNA cells
T6 construct: expressed in transfected cells
Method: as §1, §2, §3, §4

[7] = molecular target: T7, human prostanoid EP1 receptor (Homo sapiens, UniProt P34995); assay: FLIPR Ca2+ signaling PG antagonist assay, EP1 stable cell line; conditions: antagonist Kb vs standard agonist PGE2; HEK-293 EBNA cells
T7 construct: expressed in transfected cells
T7 sequence (P34995 1-402): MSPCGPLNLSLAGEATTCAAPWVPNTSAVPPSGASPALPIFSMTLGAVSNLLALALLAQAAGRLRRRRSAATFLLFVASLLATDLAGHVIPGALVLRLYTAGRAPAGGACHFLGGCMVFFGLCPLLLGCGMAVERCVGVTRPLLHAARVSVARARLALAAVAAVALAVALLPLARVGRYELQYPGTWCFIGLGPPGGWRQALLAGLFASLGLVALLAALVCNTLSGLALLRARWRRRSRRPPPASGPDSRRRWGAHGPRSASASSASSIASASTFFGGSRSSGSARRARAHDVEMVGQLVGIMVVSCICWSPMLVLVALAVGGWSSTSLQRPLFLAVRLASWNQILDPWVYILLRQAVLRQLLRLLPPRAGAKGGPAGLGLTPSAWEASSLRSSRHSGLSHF
Method: as §1, §2, §3, §4

[8] = molecular target: T8, human prostanoid FP receptor (Homo sapiens, UniProt P43088); assay: FLIPR Ca2+ signaling PG antagonist assay, FP stable cell line; conditions: antagonist Kb vs standard agonist 17-phenyl-PGF2α; HEK-293 EBNA cells
T8 construct: expressed in transfected cells
Method: as §1, §2, §3, §4

T6 sequence (P43119 whole entry): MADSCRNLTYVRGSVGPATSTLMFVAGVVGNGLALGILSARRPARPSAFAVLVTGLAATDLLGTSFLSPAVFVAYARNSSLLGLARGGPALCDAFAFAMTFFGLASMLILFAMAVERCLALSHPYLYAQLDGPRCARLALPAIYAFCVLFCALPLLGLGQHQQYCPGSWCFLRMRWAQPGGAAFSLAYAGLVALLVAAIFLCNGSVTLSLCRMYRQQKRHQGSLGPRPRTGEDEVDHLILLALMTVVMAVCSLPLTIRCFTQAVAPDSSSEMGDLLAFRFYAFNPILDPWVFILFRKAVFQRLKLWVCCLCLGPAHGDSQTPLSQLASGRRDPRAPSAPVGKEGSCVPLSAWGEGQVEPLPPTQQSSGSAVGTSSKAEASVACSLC
T3 sequence (P35408 whole entry): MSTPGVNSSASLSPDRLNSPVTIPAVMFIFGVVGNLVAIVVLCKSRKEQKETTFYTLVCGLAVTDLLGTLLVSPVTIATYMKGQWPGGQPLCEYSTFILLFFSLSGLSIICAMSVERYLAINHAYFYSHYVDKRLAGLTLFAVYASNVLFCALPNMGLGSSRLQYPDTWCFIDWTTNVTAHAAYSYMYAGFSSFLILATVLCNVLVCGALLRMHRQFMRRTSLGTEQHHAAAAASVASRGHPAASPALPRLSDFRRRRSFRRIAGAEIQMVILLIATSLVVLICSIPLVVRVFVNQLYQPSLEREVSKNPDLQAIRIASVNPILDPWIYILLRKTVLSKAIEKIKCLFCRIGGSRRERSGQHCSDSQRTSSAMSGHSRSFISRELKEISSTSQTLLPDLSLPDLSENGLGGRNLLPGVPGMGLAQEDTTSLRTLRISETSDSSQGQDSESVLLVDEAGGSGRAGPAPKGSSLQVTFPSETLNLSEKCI
T2 sequence (P43116 whole entry): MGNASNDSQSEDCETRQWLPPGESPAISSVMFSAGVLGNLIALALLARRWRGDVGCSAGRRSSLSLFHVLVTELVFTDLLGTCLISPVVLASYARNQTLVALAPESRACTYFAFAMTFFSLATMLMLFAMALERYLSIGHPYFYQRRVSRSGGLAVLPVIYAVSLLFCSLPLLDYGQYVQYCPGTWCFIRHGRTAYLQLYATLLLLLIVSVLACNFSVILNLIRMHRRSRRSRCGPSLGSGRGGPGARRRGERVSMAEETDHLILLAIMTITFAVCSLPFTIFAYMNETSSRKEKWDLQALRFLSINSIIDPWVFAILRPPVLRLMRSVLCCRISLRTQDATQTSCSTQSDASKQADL
T8 sequence (P43088 whole entry): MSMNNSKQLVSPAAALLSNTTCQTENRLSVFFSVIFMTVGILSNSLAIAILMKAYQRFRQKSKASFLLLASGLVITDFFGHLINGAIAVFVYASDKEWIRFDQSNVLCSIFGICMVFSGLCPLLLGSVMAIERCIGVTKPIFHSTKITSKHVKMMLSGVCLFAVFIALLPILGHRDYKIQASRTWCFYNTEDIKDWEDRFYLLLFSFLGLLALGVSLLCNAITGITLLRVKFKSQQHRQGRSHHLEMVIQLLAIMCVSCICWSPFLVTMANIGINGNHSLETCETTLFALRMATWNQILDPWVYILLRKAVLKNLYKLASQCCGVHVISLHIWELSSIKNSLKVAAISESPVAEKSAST

CCC(CC)COc1ccc(Br)cc1Cn1nc(OCC(=O)O)cc1C [Example 1, {1-[5-bromo-2-(2-ethyl-butoxy)-benzyl]-5-methyl-1H-pyrazol-3-yl}-oxaacetic acid]
Kb [1]: 2 nM | Kb [2]: ≥ 10000 nM | Kb [3]: 130 nM | Kb [4]: ≥ 10000 nM | Kb [5]: 640 nM | Kb [6]: 220 nM | Kb [7]: 40 nM | Kb [8]: 250 nM

CCC(CC)COc1ccc(Cl)cc1Cn1nc(OCC(=O)O)cc1C [Example 2, {1-[5-chloro-2-(2-ethyl-butoxy)-benzyl]-5-methyl-1H-pyrazol-3-yloxy}-acetic acid]
TP (Kb) [1]: PAg | Kb [2]: ≥ 10000 nM | Kb [3]: 350 nM | Kb [4]: ≥ 10000 nM | Kb [5]: 500 nM | Kb [6]: 600 nM | Kb [7]: 75 nM | Kb [8]: 980 nM

Cc1cc(OCC(=O)O)nn1Cc1cc(Cl)ccc1OCc1ccc(Cl)cc1 [Example 3, {1-[5-chloro-2-(4-chloro-benzyloxy)-benzyl]-5-methyl-1H-pyrazol-3-yloxy}-acetic acid]
Kb [1]: 1 nM | Kb [2]: 340 nM | Kb [3]: ≥ 10000 nM | Kb [4]: 3700 nM | Kb [5]: 1000 nM | Kb [6]: 500 nM | Kb [7]: 9 nM | Kb [8]: 220 nM

Cc1cc(OCC(=O)O)nn1Cc1cc(Cl)ccc1OCC(C)C [Example 4, [1-(5-chloro-2-isobutoxy-benzyl)-5-methyl-1H-pyrazol-3-yloxy]-acetic acid]
Kb [1]: 15 nM | Kb [2]: ≥ 10000 nM | Kb [3]: ≥ 10000 nM | Kb [4]: ≥ 10000 nM | DP1 (Kb) [5]: PAg | Kb [6]: ≥ 10000 nM | Kb [7]: 110 nM | Kb [8]: 1700 nM
